What was measured:
[1] = test system: Escherichia coli (NIHJ); test: Sterilization effect determination test (Fujimoto's modified method of the Kelsey-Sykes method); assay type: cell-based; set-up: key: D: There is no sterilization effect.; C: There is a sterilization effect in step (1) but no sterilization effect in step (2).; B: There is a sterilization effect up to step (2) but no sterilization effect in step (3).; A: There is a sterilization effect up to step (3); conditions: water remainder
[2] = test system: Staphylococcus aureus (209P); test: as above; assay type: cell-based; set-up: key: D: There is no sterilization effect.; C: There is a sterilization effect in step (1) but no sterilization effect in step (2).; B: There is a sterilization effect up to step (2) but no sterilization effect in step (3).; A: There is a sterilization effect up to step (3); conditions: water remainder
[3] = test system: Escherichia coli O-157 (enterohemorrhagic Escherichia coli O157: H7 EDL 933); test: Cutting board sterilization test; assay type: cell-based; conditions: 0.7 ml sprayed on contaminated cutting board; swab sample 1 minute later; cultured 24 hours at 37° C.
[4] = test system: general viable bacteria; test: Hand sterilization test (Sterilization Test 2); conditions: 1.4 ml sprayed on washed and dried hand; swab sample 1 minute later; cultured 48 hours at 37° C.
[5] = test system: Campylobacter jejuni subsp. Jejuni JCM2013; test: Sterilization test on beef (yukhoe; raw beef); assay type: cell-based; conditions: sprayed and mixed into inoculated beef; 24 hours after storage at 10° C.
[6] = Table 3, compositions with sodium lactate blended
[7] = Table 4, compositions with sodium lactate blended
[8] = Table 1, compositions of calcinated calcium and ethanol, 20° C., steps (1)-(3)
[9] = Table 2, compositions of calcinated calcium and ethanol, 20° C., steps (1)-(3)

Structure (SMILES)	Sterilization effect [1, 6]	Sterilization effect [2, 7]	Sterilization effect [1, 8]	Sterilization effect [2, 9]	further results
CC(O)C(=O)[O-].[Na+] (stereo not shown) [Sodium lactate 3 wt %, sodium lactate]	D	D	–	–	–
CC(O)C(=O)[O-].[Na+] (stereo not shown) [Sodium lactate 9 wt %, sodium lactate]	no sterilization effect whatsoever and D	D	–	–	–
CC(O)C(=O)[O-].[Na+] (stereo not shown) [Sodium lactate 1.5 wt %, sodium lactate]	D	D	–	–	–
CCO [Ethanol 20 wt %, ethanol]	–	–	D	D	–
CCO [Ethanol 10 wt %, ethanol]	–	–	D	D	–
CC(O)C(=O)[O-].[Na+] (stereo not shown) [Sodium lactate 4.5 wt %, sodium lactate]	D	D	–	–	–
CCO [Ethanol 75 wt %, ethanol]	–	–	B	B	–
CCO [Ethanol 100 wt %, ethanol]	–	–	A	A	–
CCO [Ethanol 50 wt %, ethanol]	–	–	B	D	–
CCO [Ethanol 5 wt %, ethanol]	–	–	D	D	–
CCO [70% ethanol, ethanol]	–	–	–	–	Cutting board microbe eradication results (general viable bacteria count) [3]: 2.8 × 10^4; Hand sterilization results (general viable bacteria count) [4]: 6.2 × 10^3; viable bacteria count [5]: 10^5 to 10^6
CC(O)C(=O)[O-].[Na+] (stereo not shown) [Sodium lactate 6 wt %, sodium lactate]	D	D	–	–	–
